Reference: patent publication US20080027095A1, “Use Of 3-Substituted-2-(Diphenylmethy)-1-Azabicyclo[2.2.2]Octanes For Treating Mrg-X1 Receptor Mediated Diseases” (priority 2005, published 2008)
Where no end group is shown, it is not given here.

Experiments:
hMRG-X1 receptor [1] = target: T1, hMRG-X1 receptor (Homo sapiens, UniProt Q96LB2); test: Beta-lactamase (BLA) reporter-gene assay in CHO-hMRG-X1-NFAT/BLA cells; format: cell-based; settings: for IC50: antagonism of BAM15-induced BLA response
Method: BLA assays in 384-well plates were performed essentially as described previously (11). For miniaturization of the BLA assay into 3456-well format, cells were serum-starved for ˜18 hours in assay medium (11) the day before the assay. On the day of the assay, cells were dissociated with enzyme-free dissociation buffer, re-suspended into assay medium and dispensed into a 3456-well nanoplate (3000 cells in 1.4 μl/well) using the FRD (Aurora Discovery, San Diego, Calif.) (13). Rest of the BLA assay was conducted essentially as described earlier (13). The cellular response was also observed by fluorescence microscopy with UV illumination. The data are plotted as a ratio of the emissions 460 nm/530 nm. Experimental data points are represented as median±standard deviation of 4-115 replicates.

hMRG-X1 receptor [2] = target: T1, hMRG-X1 receptor; test: Intracellular Ca2+ (FLIPR) assay in CHO-hMRG-X1-NFAT/Bla cells; format: cell-based; settings: inhibition of BAM15-induced i[Ca2+] response
Method: Intracellular Ca^2+ measurements were performed essentially as described (14, 15). Modifications include 8000 cells/well of the CHO-hMRG-X1-NFAT/Bla cells in 20 μgrowth medium plated in 384-well plates 24 hours before assay. Cells were loaded with 20 μl of 2X calcium probe and fluorescent quencher. Agonist was prepared as a 4× stock in HBSS buffer and added to the assay plate by the FLIPR384 pipetter (13.3 μl/well). Experimental data points are represented as median±standard deviation of 4 replicates.

hMRG-X1 receptor [3] = target: T1, hMRG-X1 receptor; test: Receptor trafficking/internalization assay (InCell, Transfluor) in U2OS-hMRGX1-βarrGFP cells; format: cell-based; settings: for IC50: 60 μM BAM15 (EC80), receptor trafficking
Method: (§1) U2OS-hMRGX1-βarrGFP stable cells were cultured in MEM supplemented with 10% heat-inactivated FBS, 4 mM L-Glutamine, 10 μg/ml Gentamicin, 10 mM HEPES, 0.4 mg/ml G-418, and 0.4 mg/ml Zeocin. Cells were plated on black/clear plastic bottom 384-well Corning plates at a density of 3000 cells/well in 20 μl growth medium and cultured overnight. DMSO, or sample compounds titrated in 75% DMSO were transferred from the compound source plate into the assay plate (200 nl/well). After 15 minutes incubation at 37° C. and 5% CO2, 5 μl of agonist (varying concentrations of BAM15 or EC80 concentration of 60 μM for compound titrations) was added and cells were incubated at 37° C. for 30 minutes. The fixing/nuclear staining solution was prepared in PBS as a 2× stock containing 4% paraformaldehyde and 2 μM DRAQ5 and 25 μl of this solution was added to the cells and incubated at room temperature in the dark for 30 minutes. The solution was then aspirated and replaced with PBS before confocal microscopy. Confocal microscopy was performed on the IN Cell Analyzer 3000 (GE Healthcare, Piscataway, N.J.).
All experiments with dose-response relationships were analyzed by a nonlinear regression software package from Graphpad (San Diego, Calif.). In the InCell 3000 imager, two excitation lines, 488 nm and 633 nm, were used to simultaneously excite βarrestin-GFP and the DRAQ5 nuclear stain, respectively. Confocal images from the IcCell 3000 were analyzed by the Raven software. Images of 200-300 cells from each well were captured and analyzed with GRN1 (granularity) algorithm using the Raven software of IN Cell Analyzer 3000. Individual cells or nuclei are first identified by thresholding the red channel (DRAQ5). From the nucleus, a rectangular bounding box was dilated out to the edge of the cell with a dilation setting of 15 pixels. […] This granularity algorithm was used to measure the number of fluorescent spots (Ngrains) based on fluorescent intensity and size of the grains and the average value from all the cells in a well were used to obtain the “Ngrain” value for the well. The same GRN1 algorithm was used to measure toxic affects or other false positives. Icyt value was used to measure the average intensity of the green fluorescence inside the bounding box as described above. Low Icyt values may indicate a sign of toxicity (resulting in either cell lyses or cells rounding up) displaying little or no GFP distribution in the cytoplasm and the plasma membrane, while high Icyt values may be due to the presence of fluorescent compound.

hMRG-X1 receptor [4] = target: T1, hMRG-X1 receptor; test: Whole cell receptor binding assay with 3H-BAM in CHO-hMRG-X1-NFAT-BLA cells; settings: 10 nM 3H-BAM, 4° C.
Method: CHO-hMRG-X1-NFAT-BLA cells were plated in a 24-well plate at 60,000 cells/well in 500 μl growth medium and incubated at 37° C. for 24 hours. The cells were washed once with 200 μl assay buffer (HANKS with 0.1% BSA and 20 mM HEPES, pH 7.5, refrigerated at 4° C.) using a vacuum aspirator. 90 μl assay buffer was added to each well followed by an addition of 0.2 μl/well diluted compounds (500X stock in DMSO) and incubated at 4° C. for 5 minutes. […] of ^3H-BAM peptide was added to each well (10 nM final concentration; ˜75,000 dpm) and the assay plate was incubated at 4° C. for 30 minutes with brief gentle shaking every 5 minutes. The assay plate was then washed rapidly with 2X 200 μl assay buffer (approximately 4 to 5 seconds for both washes). All wash steps were performed in a cold room (4° C.). To lyse the cells, 200 μl of 0.2 M NaOH was added to each well and incubate at room temperature for 30 minutes. The cell lysate in each well was transferred to a scintillation vial followed by addition of 3 ml scintillation solution (UltimaGold, PerkinElmer) and counted in a scintillation counter (1 minute per vial).

hMRG-X1 receptor [5] = target: T1, hMRG-X1 receptor; test: as above; settings: [3H]-BAM15
[6] = test system: U2OS-hMRGX1-βarrGFP cells; test: Toxicity algorithm (Icyt) on the InCell imaging assay; format: cell-based; settings: even at 100 μM
Method: as §1, with “The solution was then aspirated and replaced with PBS before confocal microscopy. Confocal microscopy was performed on the IN Cell Analyzer 3000 (GE Healthcare, Piscataway, N.J.).” left out
All experiments with dose-response relationships were analyzed by a nonlinear regression software package from Graphpad (San Diego, Calif.). […] Confocal images from the IcCell 3000 were analyzed by the Raven software. Images of 200-300 cells from each well were captured and analyzed with GRN1 (granularity) algorithm using the Raven software of IN Cell Analyzer 3000. […] Icyt value was used to measure the average intensity of the green fluorescence inside the bounding box as described above. […]

T1 sequence (Q96LB2 whole entry): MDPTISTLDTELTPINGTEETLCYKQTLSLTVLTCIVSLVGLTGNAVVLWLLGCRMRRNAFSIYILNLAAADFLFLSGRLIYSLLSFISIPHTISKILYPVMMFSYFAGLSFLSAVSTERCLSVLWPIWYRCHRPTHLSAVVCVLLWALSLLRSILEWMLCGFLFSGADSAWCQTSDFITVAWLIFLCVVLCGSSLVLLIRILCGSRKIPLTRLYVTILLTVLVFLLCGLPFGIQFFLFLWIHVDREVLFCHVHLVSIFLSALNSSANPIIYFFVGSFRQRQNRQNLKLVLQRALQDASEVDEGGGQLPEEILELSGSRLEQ

| Molecule | IC50 (hMRG-X1 receptor [1]; IC50 BLA) | IC50 (hMRG-X1 receptor [2]; IC50 FLIPR) | IC50 (hMRG-X1 receptor [3]; IC50 InCell) | IC50 (hMRG-X1 receptor [1]; read-out: IC50 BLA) | IC50 (hMRG-X1 receptor [2]; read-out: IC50 FLIPR) | IC50 (hMRG-X1 receptor [3]; read-out: IC50 InCell) | IC50 (hMRG-X1 receptor [4]; read-out: IC50 Binding) | other results |
| --- | --- | --- | --- | --- | --- | --- | --- | --- |
| O=C(Nc1ccccc1Cl)OC1C2CCN(CC2)C1C(c1ccccc1)c1ccccc1 (centres unmarked) [Compound 6] | 140 nM | 751 nM | 3600 nM | – | – | – | – | IC50 (hMRG-X1 receptor [4]; IC50 Binding): 607 nM |
| O=C(Nc1ccccc1Cl)OC1C2CCN(CC2)C1C(c1ccccc1)c1ccccc1 (centres unmarked) [Compound 14] | 375 nM | 2700 nM | 29000 nM | – | – | – | – | IC50 (hMRG-X1 receptor [4]; IC50 Binding): 1180 nM |
| COc1ccccc1NC(=S)NC1C2CCN(CC2)C1C(c1ccccc1)c1ccccc1 (centres unmarked) [Compound 15] | – | – | – | 418 nM | 9800 nM | 13500 nM | 2510 nM | – |
| C(Cc1ccccc1)=C1C2CCN(CC2)C1C(c1ccccc1)c1ccccc1 (centres unmarked) [Compound 7] | – | – | – | 163 nM | 220 nM | 2200 nM | 1430 nM | – |
| VGRPEWWMDYQKRYG [BAM15, reference compound] | – | – | – | – | – | – | – | EC50 (hMRG-X1 receptor [1]; 1.8 μl assay in 3456-well plates, FIG. 3A, read-out: EC50, BLA assay miniaturized): 20 nM; EC50 (hMRG-X1 receptor [1]; 384-well, across 5 clones, FIG. 2B, read-out: EC50s for BAM15, BLA assay): 40 to 300 nM; EC50 (hMRG-X1 receptor [3]; BAM15-induced, 30 minutes, FIG. 4, read-out: EC50 of pit phenotype (receptor internalization)): ~14000 nM; Kd (hMRG-X1 receptor [5]): 80 nM |
| OC(C=C1C2CCN(CC2)C1C(c1ccccc1)c1ccccc1)c1ccc(F)cc1 (centres unmarked) [Compound 8] | – | – | – | 165 nM | 334 nM | 4800 nM | 630 nM | – |
| COc1ccc(C(=O)OC2C3CCN(CC3)C2C(c2ccccc2)c2ccccc2)cc1OC (centres unmarked) [Compound 2] | 64 nM | 157 nM | 2800 nM | – | – | – | – | – |
| O=C(Nc1cccc2ccccc12)OC1C2CCN(CC2)C1C(c1ccccc1)c1ccccc1 (centres unmarked) [Compound 5] | 124 nM | 904 nM | 2200 nM | – | – | – | – | IC50 (hMRG-X1 receptor [4]; IC50 Binding): 1220 nM |
| FC(F)(F)c1ccccc1CNC1C2CCN(CC2)C1C(c1ccccc1)c1ccccc1 (centres unmarked) [Compound 11] | – | – | – | 244 nM | 460 nM | 5200 nM | 1290 nM | – |
| Cc1cc(C)cc(C(O)C=C2C3CCN(CC3)C2C(c2ccccc2)c2ccccc2)c1 (centres unmarked) [Compound 9] | – | – | – | 200 nM | 1500 nM | 5200 nM | – | – |
| OC(C=C1C2CCN(CC2)C1C(c1ccccc1)c1ccccc1)c1cccc(C(F)(F)F)c1 (centres unmarked) [Compound 4] | – | – | – | 90 nM | 209 nM | 6780 nM | – | – |
| COc1ccccc1C(=O)C=C1C2CCN(CC2)C1C(c1ccccc1)c1ccccc1 (centres unmarked) [Compound 1] | – | – | – | – | – | – | – | toxicity by toxicity algorithm on the InCell imaging assay [6]: minimal toxicity |
| N#Cc1ccc(COC2C3CCN(CC3)C2C(c2ccccc2)c2ccccc2)cc1 (centres unmarked) [Compound 16] | – | – | – | 556 nM | – | – | 1850 nM | – |
| O=C(OC1C2CCN(CC2)C1C(c1ccccc1)c1ccccc1)c1ccccc1C(F)(F)F (centres unmarked) [Compound 12] | 252 nM | 3300 nM | 8800 nM | – | – | – | – | IC50 (hMRG-X1 receptor [4]; IC50 Binding): 2400 nM |
| O=C(Nc1cccc([N+](=O)[O-])c1)OC1C2CCN(CC2)C1C(c1ccccc1)c1ccccc1 (centres unmarked) [Compound 13] | 290 nM | 1300 nM | 6300 nM | – | – | – | – | IC50 (hMRG-X1 receptor [4]; IC50 Binding): 1850 nM |
| N#Cc1cccc(COC2C3CCN(CC3)C2C(c2ccccc2)c2ccccc2)c1 (centres unmarked) [Compound 10] | – | – | – | 209 nM | 492 nM | 10000 nM | – | – |
| COc1ccccc1C(O)C=C1C2CCN(CC2)C1C(c1ccccc1)c1ccccc1 (centres unmarked) [Compound 3] | – | – | – | 80 nM | 187 nM | 550 nM | 182 nM | – |
